Results as given in patent US5075338A (priority 1986, dated 1991).

What was measured:
nictitating membrane = experiment: noradrenaline releasing effect in cats (in vivo), contraction of the nictitating membrane; conditions: anesthetized cat, PEA i.p.
[1] = psychostimulant effect in rats: modified jumping test; type: in vivo, rat
[2] = psychostimulant effect in rats: shuttle-box test; type: in vivo, rat
[3] = effect exerted on food intake, in rats; type: in vivo, rat
noradrenaline release = conditions: background; cited from earlier work
[4] = system: neuronal uptake of indirectly acting endogenic sympathomimetic amines; conditions: background; cited from earlier work

Row | Structure (SMILES) | contraction of the nictitating membrane (nictitating membrane) | learning and retention ([1]; larger doses, above 3 mg/kg) | learning and retention ([1]; small doses, up to 1-2 mg/kg) | intersignal reaction ([2]; 1 mg/kg s.c. daily) | acquisition of a conditioned reaction and its retention ([2]; 1 mg/kg s.c. daily, five days of observation) | general motility ([2]; 5-10 mg/kg) | food intake ([3]; rats fasted for 96 hours, 2-5 mg/kg, for 3-4 hours) | anorectic effect ([3]; well-fed satiated rats, 1 mg/kg) | noradrenaline releasing effect (noradrenaline release) | inhibition of neuronal uptake of indirectly acting endogenic sympathomimetic amines [4]
1 | CC(N)Cc1ccccc1 (stereo not drawn) [amphetamine, reference compound] | contraction of long duration | deteriorate | improve | disproportionately high intersignal reaction | significantly increases the acquizition of a conditioned reaction and its retention | extremely high general motility increasing effect | completely inhibited | exhibits an anorectic effect | strong and long lasting | –
2 | CN[C@@H](C)Cc1ccccc1 [methamphetamine] | contraction of long duration | – | – | – | – | – | – | – | strong and long lasting | inhibits the neuronal uptake of indirectly acting endogenic sympathomimetic amines to a significant extent
